Values of other authors, collected in US20100179144A1, “QUINAZOLINE DERIVATIVES AS P13 KINASE INHIBITORS” (priority 2007, published 2010).

Test system: Class I PI3-kinases
Settings: about; Fruman et al. 1998; read-out: IC50 against each of these PI3-kinases

For O=c1cc(N2CCOCC2)oc2c(-c3ccccc3)cccc12 [LY294002], the IC50 is listed as 15 to 20 µM.
